# Data from patent publication US7220824B1, “Integrin-mediated drug targeting” (Bayer Aktiengesellschaft, priority 2000, dated 2007).
# Like-named read-outs stand apart in the source and are kept apart here.
# Legend:
# [1] = target: T1, αvβ3 receptor (αvβ3 from human A375 cells) (Homo sapiens, UniProt P05106+P06756); assay: αvβ3 binding test (echistatin displacement, WGA SPA beads)
# T1 construct: αvβ3 from human A375 cells was purified analogously to a procedure which was described by Wong et al; endogenous in cells; host or cells: human A375 cells; the receptor was purified from the cells and used detergent-solubilised (n-octyl-glucopyranoside)
# Description: αvβ3 from human A375 cells was purified analogously to a procedure which was described by Wong et al. (Molecular Pharmacology, 50, 529–537 (1996)). In each case, 10 μl of αvβ3 (5 ng) in TBS pH 7.6, 2 mM CaCl2, 1 mM MgCl2, 1% n-octyl-glucopyranoside (Sigma); 10 μl of test substance in TBS pH 7.6, 0.1% DMSO and 45 μl of TBS pH 7.6, 2 mM CaCl2, 1 mM MgCl2, 1 mM MnCl2 were incubated at room temperature for 1 h. In each case, 25 μl of WGA SPA beads (Amersham, 4 mg/ml) and 10 μl of echistatin ([…], Amersham, chloramine-T labelled) were then added. After 16 hours at room temperature, the samples were measured in a scintillation measuring apparatus (Wallac 1450).
# [2] = tested on: MCF7; assay: Growth inhibition test (MTT), cytotoxic action on tumour cell lines; format: cell-based; conditions: Homo sapiens, MCF7, 144 h, read-out: IC50 values of the cytotoxic action on tumour cell lines, MCF7
# Description: (§1) The human large intestine cell lines SW 480 and HT29 (ATCC No. CCL 228 and HTB38), the human breast cell lines MDA-MB 231, MCF-7 and BT20 (ATCC No. HTB-, 26, 22 and 23) and the mouse melanoma cell line B16F 10 (CRL 6475) were grown to confluence in Roux dishes in RPMI 1640 medium with addition of 10% FCS. They were then trypsinized and taken up in RPMI plus 10% FCS to a cell count of 50,000 cells or, for B16F10, 20,000 cells per ml. 100 μl of cell suspension/well were added to a 96 microwell plate and incubated at 37° C. for 1 day in a CO2 incubator. A further 100 μl of RPMI medium and 1 μl of DMSO were then added with the test substances. The growth was checked after day 6. For this, 25 μl of MTT solution (3-(4,5-dimethylthiazol-2-yl)-2,5-diphenyltetrazolium bromide) was added to each well at a starting concentration of 5 mg/ml of H2O. The plate was incubated at 37° C. for 5 hours in a CO2 incubator. The medium was then aspirated and 100 μl of i-propanol/well were added. After shaking with 100 μl of H2O for 30 min, the extinction was measured at 595-nm using a Multiplate Reader (BIO-RAD 3550-UV).
# (§2) The cytostatic action is indicated in Table 2 as an IC50 value, in each case for the individual cell lines.
# [3] = tested on: MDA-MB 231; assay: as above; format: cell-based; conditions: Homo sapiens, MDA-MB-231, 144 h, read-out: IC50 values of the cytotoxic action on tumour cell lines, MDA-MB 231
# Description: as §1, §2
# [4] = tested on: SW480; assay: as above; format: cell-based; conditions: Homo sapiens, SW480, 144 h, read-out: IC50 values of the cytotoxic action on tumour cell lines, SW480
# Description: as §1, §2
# [5] = tested on: HT 29; assay: as above; format: cell-based; conditions: Homo sapiens, HT-29, 144 h, read-out: IC50 values of the cytotoxic action on tumour cell lines, HT 29
# Description: as §1, §2
# [6] = tested on: B16F10; assay: as above; format: cell-based; conditions: Mus musculus, B16-F10, 144 h, read-out: IC50 values of the cytotoxic action on tumour cell lines, B16F10
# Description: as §1, §2
# [7] = tested on: BT20; assay: as above; format: cell-based; conditions: Homo sapiens, BT-20, 144 h, read-out: IC50 values of the cytotoxic action on tumour cell lines, BT20
# Description: as §1, §2
# [8] = αvβ3 purified from human A375 cells, labelled echistatin, read-out: IC50 values of the binding to the αvβ3 receptor
# T1 sequence (P06756 31-889 limits assumed): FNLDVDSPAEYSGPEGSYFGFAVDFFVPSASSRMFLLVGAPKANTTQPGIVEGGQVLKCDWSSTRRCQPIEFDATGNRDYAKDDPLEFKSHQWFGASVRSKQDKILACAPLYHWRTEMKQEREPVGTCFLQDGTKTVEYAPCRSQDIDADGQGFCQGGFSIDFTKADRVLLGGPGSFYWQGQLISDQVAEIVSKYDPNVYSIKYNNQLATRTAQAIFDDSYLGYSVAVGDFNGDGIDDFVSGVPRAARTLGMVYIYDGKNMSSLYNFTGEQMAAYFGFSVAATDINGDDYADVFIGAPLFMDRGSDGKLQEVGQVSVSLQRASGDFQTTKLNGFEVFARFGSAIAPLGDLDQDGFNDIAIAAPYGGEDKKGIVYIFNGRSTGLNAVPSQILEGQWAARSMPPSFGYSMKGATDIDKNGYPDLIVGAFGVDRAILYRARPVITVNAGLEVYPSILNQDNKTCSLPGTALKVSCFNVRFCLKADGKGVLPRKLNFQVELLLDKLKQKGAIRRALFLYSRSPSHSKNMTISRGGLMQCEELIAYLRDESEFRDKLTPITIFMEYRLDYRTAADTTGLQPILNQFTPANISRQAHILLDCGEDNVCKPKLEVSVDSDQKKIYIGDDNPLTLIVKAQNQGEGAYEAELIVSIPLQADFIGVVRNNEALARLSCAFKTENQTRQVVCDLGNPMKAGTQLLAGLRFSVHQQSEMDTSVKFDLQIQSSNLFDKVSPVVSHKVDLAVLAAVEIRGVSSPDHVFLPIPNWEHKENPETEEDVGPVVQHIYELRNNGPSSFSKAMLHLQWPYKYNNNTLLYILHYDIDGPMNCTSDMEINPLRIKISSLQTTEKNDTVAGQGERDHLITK
# T1 sequence (P06756 891-1048 partner limits assumed): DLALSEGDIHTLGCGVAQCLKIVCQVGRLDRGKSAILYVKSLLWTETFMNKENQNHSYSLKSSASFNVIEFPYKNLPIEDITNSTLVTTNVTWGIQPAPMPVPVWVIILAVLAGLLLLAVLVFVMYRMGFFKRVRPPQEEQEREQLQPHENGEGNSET
# T1 sequence (P05106 27-788): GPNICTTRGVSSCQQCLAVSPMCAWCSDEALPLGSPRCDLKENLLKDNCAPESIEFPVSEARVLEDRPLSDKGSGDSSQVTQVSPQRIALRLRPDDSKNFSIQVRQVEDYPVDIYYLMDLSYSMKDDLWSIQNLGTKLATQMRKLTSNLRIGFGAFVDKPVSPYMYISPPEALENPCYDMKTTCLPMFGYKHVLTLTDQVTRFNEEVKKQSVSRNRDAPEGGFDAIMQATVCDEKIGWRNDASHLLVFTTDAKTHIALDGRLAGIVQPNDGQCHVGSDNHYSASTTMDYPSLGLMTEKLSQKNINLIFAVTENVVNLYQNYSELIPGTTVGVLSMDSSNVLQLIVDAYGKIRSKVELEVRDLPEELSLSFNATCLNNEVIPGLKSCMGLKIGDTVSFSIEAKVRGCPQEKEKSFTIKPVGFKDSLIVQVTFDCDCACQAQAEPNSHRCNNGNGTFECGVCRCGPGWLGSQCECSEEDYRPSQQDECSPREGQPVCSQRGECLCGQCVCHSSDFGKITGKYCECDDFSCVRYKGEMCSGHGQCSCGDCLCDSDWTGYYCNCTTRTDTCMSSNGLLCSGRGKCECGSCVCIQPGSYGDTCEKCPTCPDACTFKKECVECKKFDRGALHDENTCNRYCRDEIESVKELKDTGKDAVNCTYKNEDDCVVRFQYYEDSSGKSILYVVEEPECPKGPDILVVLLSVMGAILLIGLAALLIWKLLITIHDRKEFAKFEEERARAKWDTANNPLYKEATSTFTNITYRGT
SMILES,"IC50 [1, 8] [nM]",IC50 [2] [nM],IC50 [3] [nM],IC50 [4] [nM],IC50 [5] [nM],IC50 [6] [nM],IC50 [7] [nM],IC50 [1] [nM]
CCC1(OC(=O)[C@@H](NC(=O)Nc2cccc(-c3ccc(S(=O)(=O)NC(CC(=O)O)c4ccccc4)cc3)c2)C(C)C)C(=O)OCc2c1cc1n(c2=O)Cc2cc3ccccc3nc2-1 (stereo partly shown) [Example 2.12],127,10,10,20,9,20,8,
CC[C@@]1(OC(=O)[C@@H](NC(=O)[C@H](Cc2cnc[nH]2)NC(=O)Nc2cccc(-c3ccc(C[C@H](NS(=O)(=O)CC45CCC(CC4=O)C5(C)C)C(=O)O)cc3)c2)C(C)C)C(=O)OCc2c1cc1n(c2=O)Cc2cc3ccccc3nc2-1 (stereo partly shown) [Example 2.7],,800,900,900,600,3000,5000,86
CC[C@@]1(OC(=O)[C@@H](NC(=O)Nc2cccc(-c3ccc(C[C@H](NS(=O)(=O)CC45CCC(CC4=O)C5(C)C)C(=O)O)cc3)c2)C(C)C)C(=O)OCc2c1cc1n(c2=O)Cc2cc3ccccc3nc2-1 (stereo partly shown) [Example 2.8],83,10,15,20,10,200,9,
CC[C@@]1(OC(=O)[C@@H](NC(=O)[C@H](CCCCNC(=O)OCC2c3ccccc3-c3ccccc32)NC(=O)Nc2cccc(-c3ccc(C[C@H](NS(=O)(=O)CC45CCC(CC4=O)C5(C)C)C(=O)O)cc3)c2)C(C)C)C(=O)OCc2c1cc1n(c2=O)Cc2cc3ccccc3nc2-1 (stereo partly shown) [Example 2.6],,5000,3000,3000,3000,10000,9000,239
CCC1(OC(=O)[C@@H](NC(=O)[C@H](Cc2c[nH]cn2)NC(=O)Nc2cccc(-c3ccc(S(=O)(=O)NC(CC(=O)O)c4ccccc4)cc3)c2)C(C)C)C(=O)OCc2c1cc1n(c2=O)Cc2cc3ccccc3nc2-1 (stereo partly shown) [Example 2.11],197,500,600,600,400,800,400,
CCCNC(=O)Nc1cccc(S(=O)(=O)Nc2cccc(C(CC(=O)O)NS(=O)(=O)c3ccc(NC(=S)N[C@@H](Cc4c[nH]cn4)C(=O)N[C@H](C(=O)O[C@]4(CC)C(=O)OCc5c4cc4n(c5=O)Cc5cc6ccccc6nc5-4)C(C)C)cc3)c2)c1 (stereo partly shown) [Example 3.12],,100,150,300,150,250,150,390
CC[C@@]1(OC(=O)[C@@H](NC(=O)[C@H](Cc2c[nH]cn2)NC(=O)Nc2cccc(-c3cccc(S(=O)(=O)NC(CC(=O)O)c4ccccc4)c3)c2)C(C)C)C(=O)OCc2c1cc1n(c2=O)Cc2cc3ccccc3nc2-1 (stereo partly shown) [Example 2.10],101,1500,400,1000,700,2000,1000,
CC[C@@]1(OC(=O)[C@@H](NC(=O)[C@H](Cc2c[nH]cn2)NC(=S)Nc2ccc(C(=O)NC(CC(=O)O)c3cccc(NS(=O)(=O)c4cccc(NC(=N)N)c4)c3)cc2)C(C)C)C(=O)OCc2c1cc1n(c2=O)Cc2cc3ccccc3nc2-1 (stereo partly shown) [Example 3.3],,100,100,300,90,,150,45
CC[C@@]1(OC(=O)[C@@H](NC(=O)[C@H](CCCCN)NC(=S)Nc2ccc(S(=O)(=O)NC(CC(=O)O)c3cccc(NS(=O)(=O)c4cccc(NC(=N)N)c4)c3)cc2)C(C)C)C(=O)OCc2c1cc1n(c2=O)Cc2cc3ccccc3nc2-1 (stereo partly shown) [Example 3.4],65,700,300,200,200,500,700,
CC[C@@]1(OC(=O)[C@@H](NC(=O)[C@H](Cc2cnc[nH]2)NC(=S)Nc2cccc(C(CC(=O)O)NS(=O)(=O)c3cccc(-c4cccc(NC(=O)Nc5nc6ccccc6[nH]5)c4)c3)c2)C(C)C)C(=O)OCc2c1cc1n(c2=O)Cc2cc3ccccc3nc2-1 (stereo partly shown) [Example 3.6],,400,400,400,300,2000,1000,22
CC[C@@]1(OC(=O)[C@@H](NC(=O)Nc2cccc(-c3cccc(S(=O)(=O)NC(CC(=O)O)c4ccccc4)c3)c2)C(C)C)C(=O)OCc2c1cc1n(c2=O)Cc2cc3ccccc3nc2-1 (stereo partly shown) [Example 2.13],97,10,20,15,15,20,5,
CC[C@@]1(OC(=O)[C@@H](NC(=O)CNC(=O)CCCC(=O)NC(CC(=O)O)c2cccc(NS(=O)(=O)c3cccc(NC(=N)N)c3)c2)C(C)C)C(=O)OCc2c1cc1n(c2=O)Cc2cc3ccccc3nc2-1 (stereo partly shown) [Example 3.19],48,5000,2000,1500,500,6000,4000,
CC[C@@]1(OC(=O)[C@@H](NC(=O)[C@H](Cc2cnc[nH]2)NC(=S)Nc2ccc(CC(NS(=O)(=O)c3cc(-c4cccc(NC(=O)Nc5nc6ccccc6[nH]5)c4)ccc3OC)C(=O)O)cc2)C(C)C)C(=O)OCc2c1cc1n(c2=O)Cc2cc3ccccc3nc2-1 (stereo partly shown) [Example 3.7],,400,300,400,200,800,600,111
CC[C@@]1(OC(=O)[C@@H](NC(=O)[C@H](Cc2cnc[nH]2)NC(=S)Nc2ccc(CC(NS(=O)(=O)c3cccc(-c4cccc(NC(=O)Nc5nc6ccccc6[nH]5)c4)c3)C(=O)O)cc2)C(C)C)C(=O)OCc2c1cc1n(c2=O)Cc2cc3ccccc3nc2-1 (stereo partly shown) [Example 3.9],,150,60,400,60,1000,500,220
CC[C@@]1(O)C(=O)OCc2c1cc1n(c2=O)Cc2cc3c(NC(=S)NC(CC(=O)O)c4cccc(NS(=O)(=O)c5cccc(NC(=N)N)c5)c4)cccc3nc2-1 (stereo partly shown) [Example 3.17],66,,3000,800,600,5000,5000,
CC[C@@]1(OC(=O)[C@@H](NC(=O)[C@H](CCCCNC(=O)CC(NC(=O)CNC(=O)c2cccc(NC(=N)N)c2)c2ccccc2)NC(=S)Nc2ccccc2)C(C)C)C(=O)OCc2c1cc1n(c2=O)Cc2cc3ccccc3nc2-1 (stereo partly shown) [Example 1.1],873,90,100,200,120,,150,
CC[C@@]1(OC(=O)[C@@H](NC(=O)[C@H](CCC(=O)O)NC(=S)Nc2cccc(C(=O)NCC(=O)NC(CC(=O)O)c3ccccc3)c2)C(C)C)C(=O)OCc2c1cc1n(c2=O)Cc2cc3ccccc3nc2-1 (stereo partly shown) [Example 2.2],1500,300,300,500,300,,400,
CC[C@@]1(OC(=O)[C@@H](NC(=O)[C@H](Cc2c[nH]cn2)NC(=S)Nc2cccc(S(=O)(=O)Nc3cccc(C(CC(=O)O)NS(=O)(=O)c4ccccc4)c3)c2)C(C)C)C(=O)OCc2c1cc1n(c2=O)Cc2cc3ccccc3nc2-1 (stereo partly shown) [Example 2.3],,60,20,120,70,,80,697
